Source: patent US8252832B2, “Kinesin inhibitors as cancer therapeutics” (Novartis AG, priority 2007, dated 2012)
Like-named read-outs stand apart in the source and are kept apart here.

Legend:
Test in all cases: CellTiter-Glo, NCI60 panel
Type in all cases: cell-based
OVCAR-5 = conditions: Ovarian; for GI50: Homo sapiens
Source text: (§1) Identification of tumor types that are the most sensitive to the KSP inhibitors of the present invention can be accomplished using an unbiased approach that uses several cell-based assays. The assays chosen were as follows: • CellTiter-Glo®. This is an assay designed to measure ATP concentration in a cell culture, and can be correlated to cell number. Briefly CellTiter-Glo® (Promega Corporation) is a homogeneous method using the single CellTiter-Glo® reagent to detect ATP wherein ATP in the assay drives the activity of a thermostable luciferase to create a luminescent signal which can then be measured and correlated with the number of viable cells. Briefly, for adherent cells, 1,000 to 5,000 cells/well were plated in 96-well plates (100 μl/well) and let to adhere for 24 hours before being treated with drug. For non-adherent cells, 1,000 to 10,000 cells/well were plated in 96-well plates (100 μl/well) and immediately treated with drug. Drug dilutions were prepared in DMSO at 1000 times the final concentration. These dilutions were then diluted 1/100 in growth media before being added to the cells (11 μl/well) to achieve the desired final concentration. After 48 h in a 37° C. tissue culture incubator, the plates were processed for the CellTiter-Glo®assay according to the manufacturer's instructions. Protocol for a 72 hour cell proliferation assay: The 72 hour assay was performed the same way as the 48 hour assay except for the following modifications: For adherent cells, 500 to 5,000 cells/well were plated in 96-well plates (90 μl/well cell growth media) and left to adhere for 24 hours before being treated with drug. For non-adherent cells, 1,000 to 10,000 cells/well were plated in 96-well plates (90 μl/well cell growth media) and immediately treated with drug. Data values presented represent the concentration of test compound required for a 50% reduction in growth. • LDH release. The Cytotoxicity Detection KitPLUS (LDH) assay (Roche Diagnostics, Manheim, Germany) measures the amount of LDH released in the media by dying cells; LDH catalyzes the conversion of lactate into pyruvate. The enzymatic reaction is coupled to a chemical reaction that uses a tetrazolium salt to form a formazan that is red and can be detected by its absorbance at 490 nm. This assay measures the amount of cell death after drug treatment. Cells were plated at 10,000 cells/well in 96-well plates (100 μl/well). Adherent cells were let to adhere for 24 hours before being treated with drug, whereas non-adherent cells were immediately treated with drug. Drug dilutions were prepared in DMSO at 1000 times the final concentration. These dilutions were then diluted 1/100 in growth media before being added to the cells (11 μl/well) to achieve the desired final concentration. After 48 h in a 37° C. tissue culture incubator, the plates were processed for the Cytotoxicity Detection KitPLUS (LDH) assay according to the manufacturer's instructions. The media only values were subtracted from all the data points before analysis. Data values presented correspond to the compound concentration wherein LDH output is at half maximal level. • Caspase-Glo® 3/7. The Caspase-Glo® 3/7 Assay (Promega Corporation) is a homogeneous luminescent assay that measures caspase-3/7 activities. The assay provides a proluminescent caspase-3/7 DEVD-aminoluciferin substrate and a thermostable luciferase in a reagent optimized for caspase-3/7 activity, luciferase activity and cell lysis. Adding the single Caspase-Glo® 3/7 Reagent results in cell lysis, followed by caspase cleavage of the substrate. This liberates free aminoluciferin, which is consumed by the luciferase, generating a luminescent signal. The signal is proportional to caspase-3/7 activity. Data values presented correspond to the compound concentration wherein caspase 3/7 activity is at half maximal level. […]

EKVX = conditions: NSCL; for GI50: Homo sapiens
Source text: as §1

UACC-257 = conditions: Melanoma; for GI50: Homo sapiens
Source text: as §1

HS 578T = conditions: Breast; for GI50: Homo sapiens
Source text: as §1

MDA-MB-435 = conditions: Melanoma; for GI50: Homo sapiens
Source text: as §1

MDA-MB-231 = conditions: Breast; for GI50: Homo sapiens
Source text: as §1

SK-MEL-5 = conditions: Melanoma; for GI50: Homo sapiens
Source text: as §1

TK-10 = conditions: Renal; for GI50: Homo sapiens
Source text: as §1

SK-OV-3 = conditions: Ovarian; for GI50: Homo sapiens
Source text: as §1

LOX IMVI = conditions: Melanoma; for GI50: Homo sapiens
Source text: as §1

M14 = conditions: Melanoma; for GI50: Homo sapiens
Source text: as §1

UACC-62 = conditions: Melanoma; for GI50: Homo sapiens
Source text: as §1

SF-268 = conditions: CNS; for GI50: Homo sapiens
Source text: as §1

BT-549 = conditions: Breast; for GI50: Homo sapiens
Source text: as §1

HOP-62 = conditions: NSCL; for GI50: Homo sapiens
Source text: as §1

NCI-H322M = conditions: NSCL; for GI50: Homo sapiens
Source text: as §1

[1] = GI50 in nM, read-out: Log(GI50) (converted)

CC(C)(C)[C@H](c1nc(-c2cc(F)ccc2F)cn1Cc1ccccc1)N(CC[C@H](N)CF)C(=O)CO [Compound IIa]
GI50 (OVCAR-5; [1]): 10 nM
GI50 (OVCAR-5; read-out: GI50): 10 nM
Differential vs mean Log(GI50) (OVCAR-5): −0.669
GI50 (EKVX; [1]): 10 nM
GI50 (EKVX; read-out: GI50): 10 nM
Differential vs mean Log(GI50) (EKVX): −0.669
GI50 (UACC-257; [1]): 10 nM
GI50 (UACC-257; read-out: GI50): 10 nM
Differential vs mean Log(GI50) (UACC-257): −0.669
Differential vs mean Log(GI50) (HS 578T): 0.989
GI50 (HS 578T; [1]): 0.22 nM
GI50 (HS 578T; read-out: GI50): 0.22 nM
GI50 (MDA-MB-435; [1]): 0.152 nM
GI50 (MDA-MB-435; read-out: GI50): 0.152 nM
Differential vs mean Log(GI50) (MDA-MB-435): 1.149
Differential vs mean Log(GI50) (MDA-MB-231): 0.809
GI50 (MDA-MB-231; [1]): 0.333 nM
GI50 (MDA-MB-231; read-out: GI50): 0.333 nM
GI50 (SK-MEL-5; [1]): 10 nM
GI50 (SK-MEL-5; read-out: GI50): 10 nM
Differential vs mean Log(GI50) (SK-MEL-5): −0.669
GI50 (TK-10; [1]): 10 nM
GI50 (TK-10; read-out: GI50): 10 nM
Differential vs mean Log(GI50) (TK-10): −0.669
GI50 (SK-OV-3; [1]): 0.421 nM
GI50 (SK-OV-3; read-out: GI50): 0.421 nM
Differential vs mean Log(GI50) (SK-OV-3): 0.707
GI50 (LOX IMVI; [1]): 10 nM
GI50 (LOX IMVI; read-out: GI50): 10 nM
Differential vs mean Log(GI50) (LOX IMVI): −0.669
GI50 (M14; [1]): 0.209 nM
GI50 (M14; read-out: GI50): 0.209 nM
Differential vs mean Log(GI50) (M14): 1.011
GI50 (UACC-62; [1]): 10 nM
GI50 (UACC-62; read-out: GI50): 10 nM
Differential vs mean Log(GI50) (UACC-62): −0.669
Differential vs mean Log(GI50) (SF-268): −0.669
GI50 (SF-268; [1]): 10 nM
GI50 (SF-268; read-out: GI50): 10 nM
Differential vs mean Log(GI50) (BT-549): 0.423
GI50 (BT-549; [1]): 0.809 nM
GI50 (BT-549; read-out: GI50): 0.809 nM
GI50 (HOP-62; [1]): 10 nM
GI50 (HOP-62; read-out: GI50): 10 nM
Differential vs mean Log(GI50) (HOP-62): −0.669
GI50 (NCI-H322M; [1]): 10 nM
GI50 (NCI-H322M; read-out: GI50): 10 nM
Differential vs mean Log(GI50) (NCI-H322M): −0.669
